According to paper PMC3753236, “Glucocorticosteroids in Nano-Sterically Stabilized Liposomes Are Efficacious for Elimination of the Acute Symptoms of Experimental Cerebral Malaria” (PLoS ONE, 2013):

Columns and labels:
[1] = system: non-chloroquine resistant P. falciparum; test: P. falciparum culture, 3H-hypoxanthine incorporation; type: cell-based, Plasmodium falciparum; conditions: at concentrations up to 33 µM
Experimental: The parasite was grown in a human red blood cell culture (RPMI 1640, 7.5% bicarbonate, 50 µM hypoxanthine, 50 µg/ml gentamycin, and 7.5% human plasma) at 1% hematocrit and 2% parasitemia. Cultures containing predominantly ring forms were used; synchronization of the culture was performed if trophozoites represented more than 1–2% of the various developmental stages. Briefly, the culture was centrifuged and the supernatant replaced by 5% (isotonic) sorbitol. After 5 minutes at 37°C the culture was centrifuged again and the supernatant replaced by culture medium to obtain a final 1% hematocrit.
Drug testing was performed in 96-well microtiter plates incubated at 37°C in a 5% O2, 5% CO2, and 90% N2 gas mixture for 72 hours. After 48 hours, 1 µCi ^3H-hypoxanthine was added to each well and the plates were read the next day using a scintillation counter.

[2] = system: Plasmodium berghei ANKA (PbA); test: Early treatment of experimental cerebral malaria (ECM), ICR mice infected with PbA; conditions: 10 mg/kg/d on days 3, 5, 7, 9 p.i.
Experimental: (§1) Plasmodium berghei ANKA (PbA; PbA MRA-311, CDC, Atlanta, GA, USA) was maintained in vivo by serial transfer of parasitized erythrocytes (PE) from infected to naïve mice. Experiments were also performed using a second strain of PbA, similarly maintained, and designated PbAus in the text (courtesy of Prof. G. Grau, University of Sydney, Australia).
(§2) Parasitemia was monitored by thin blood smears prepared from tail blood. These were stained with a 25% Giemsa solution, examined under a light microscope, and parasitemia determined as the percent of infected red blood cells per 10,000 erythrocytes. Disease severity was determined according to scoring of neurological symptoms and changes in weight and temperature, as previously described […] Parasitemias above 20% and the absence of neurological symptoms indicated severe anemic malaria.
For early ECM treatment, injections were given on days 3, 5, 7, and 9 p.i; for late treatment, treatment was given every other day, starting on day 5 p.i. for a total of at least two injections. Infected, non-treated control mice were injected with 5% dextrose or empty nSSL. Clinical signs and parasitemias were monitored and disease severity scored as described […] Surviving mice were treated with 2×10 mg/kg/d artemisone by intraperitoneal injection in order to achieve cure; mice were monitored for four weeks post-artemisone treatment in order to allow detection of possible late recrudescence. […] At each time-point, at least 3 mice from each group were chosen at random, deeply anesthetized, and brains were removed following intracardial perfusion (using saline, if organs were destined for real-time (rt)PCR analysis, or saline/formalin, if organs were destined for histopathological analysis). Organs destined for rtPCR analysis were snap-frozen in liquid nitrogen and stored at −80°C until use. Organs destined for immunohistology were immediately immersed in cryoprotectant solution (see below).

[3] = system: Plasmodium berghei ANKA (PbAus); test: Early treatment of ECM, PbAus-inoculated C57Bl/6 mice (with sequential artemisone); conditions: for Death: ECM (number of mice) / Death: Severe anemic malaria (number of mice) / Death: Toxicity (number of mice) / Death: ECM (%) / Death: Severe anemic malaria (%) / Average clinical score (±SEM): days 3, 5, 7, 9 p.i.; for Death: ECM (%) / Death: Severe anemic malaria (%): excludes acute toxicity deaths; for Average clinical score (±SEM): 11 days post-inoculation; for % survival / Group score: 20 mg/kg (Fig 6 legend)
Experimental: as §1, §2
For early ECM treatment, injections were given on days 3, 5, 7, and 9 p.i; for late treatment, treatment was given every other day, starting on day 5 p.i. for a total of at least two injections. Infected, non-treated control mice were injected with 5% dextrose or empty nSSL. Clinical signs and parasitemias were monitored and disease severity scored as described […] At each time-point, at least 3 mice from each group were chosen at random, deeply anesthetized, and brains were removed following intracardial perfusion (using saline, if organs were destined for real-time (rt)PCR analysis, or saline/formalin, if organs were destined for histopathological analysis). Organs destined for rtPCR analysis were snap-frozen in liquid nitrogen and stored at −80°C until use. Organs destined for immunohistology were immediately immersed in cryoprotectant solution (see below).

[4] = system: microglia; test: Microglial activation, IBA-1 immunohistology; type: in vivo, C57Bl/6 mice; conditions: IBA-1, normalized to non-infected mice
Experimental: (§3) Sections were thaw-mounted onto on poly-L-lysine-coated slides and stored at -80°C until use.
Slides were thawed by sequential incubation at −20°C and 5°C (10 minutes at each temperature) and incubated in blocking solution consisting of 20% of 5% BSA and 80% of 5% NGS, in a moist environment at room temperature (RT). After one hour the blocking solution was removed and sections incubated overnight at 5°C with primary antibody diluted 1∶200 in blocking solution. Microglia were stained using rabbit anti-mouse ionized calcium binding adaptor molecule 1 (IBA-1) (Wako Chemicals, Richmond, VA, USA); astrocytes were stained using rabbit anti-bovine glial fibrillary acidic protein (GFAP) (cross-reactive to mouse; LifeSpan Biosciences, Seattle, WA, USA). After washing in PBS, slides were incubated for one hour at RT with secondary antibody, Cy3-AffiniPure donkey anti-rabbit IgG H+L (diluted 1∶200 in PBS; Jackson Immunoresearch Laboratories, West Grove, PA, USA), followed by an additional wash. […] At least three sections per brain (6 fields each) were examined, and the total number of astrocytes and microglia counted. […] Images were visualized and analyzed with ImagePro analysis software: quantification of relative fluorescence was performed using the integrated optical density (IOD) parameter. […]

[5] = system: astrocytes; test: Astrocyte activation, GFAP immunohistology; type: in vivo, C57Bl/6 mice; conditions: for Astrocytes, normalized IOD: GFAP, normalized to non-infected mice
Experimental: as §3
Slides were thawed by sequential incubation at −20°C and 5°C (10 minutes at each temperature) and incubated in blocking solution consisting of 20% of 5% BSA and 80% of 5% NGS, in a moist environment at room temperature (RT). After one hour the blocking solution was removed and sections incubated overnight at 5°C with primary antibody diluted 1∶200 in blocking solution. Microglia were stained using rabbit anti-mouse ionized calcium binding adaptor molecule 1 (IBA-1) (Wako Chemicals, Richmond, VA, USA); astrocytes were stained using rabbit anti-bovine glial fibrillary acidic protein (GFAP) (cross-reactive to mouse; LifeSpan Biosciences, Seattle, WA, USA). After washing in PBS, slides were incubated for one hour at RT with secondary antibody, Cy3-AffiniPure donkey anti-rabbit IgG H+L (diluted 1∶200 in PBS; Jackson Immunoresearch Laboratories, West Grove, PA, USA), followed by an additional wash. After addition of 4′,6-diamidino-2-phenylindole (DAPI) in mounting solution (Dapi-Fluoromount-G, Southern Biotech, Birmingham, AL, USA) the slides were mounted with coverslips and examined by fluorescent microscopy. At least three sections per brain (6 fields each) were examined, and the total number of astrocytes and microglia counted. High-resolution images of stained slides were photographed using a laser confocal scanning microscope. Images were visualized and analyzed with ImagePro analysis software: quantification of relative fluorescence was performed using the integrated optical density (IOD) parameter. IOD values of infected non-treated or treated mice were normalized to non-infected mouse values.

[6] = other disease models; ref [5]; cited from earlier work
[7] = day 5 p.i., treatment days 3, 5, 7, 9 p.i.
[8] = day 9 p.i., treatment days 3, 5, 7, 9 p.i.

## C[C@H]1C[C@H]2[C@@H]3CCC4=CC(=O)C=C[C@]4(C)[C@@]3(F)[C@@H](O)C[C@]2(C)[C@@]1(O)C(=O)COC(=O)CCC(=O)O [BMS, β-methasone hemisuccinate]
[1]
  IC50 (effect against cultured P. falciparum): no effect ^*
[1]; listed as Free BMS
  IC50 (effect against cultured P. falciparum): not effective
[2]
  ECM rate (incidence of CM): 67%
[3]; 5 mg/kg i.v.
  Death: ECM (number of mice): 5
  Death: Severe anemic malaria (number of mice): 1
  Death: Toxicity (number of mice): 3
  Death: ECM (%): (83%)
  Death: Severe anemic malaria (%): (16%)
[3]; 10 mg/kg i.v.
  Death: ECM (number of mice): 9
  Death: Severe anemic malaria (number of mice): 1
  Death: Toxicity (number of mice): 3
  Death: ECM (%): (90%)
  Death: Severe anemic malaria (%): (10%)
[3]; 10 mg/kg
  Average clinical score (±SEM): 7.5±1.6
[3]; 20 mg/kg i.v.
  Death: ECM (number of mice): 9
  Death: Severe anemic malaria (number of mice): 3
  Death: Toxicity (number of mice): 5
  Death: ECM (%): (75%)
  Death: Severe anemic malaria (%): (25%)
[3]; 20 mg/kg on days 3, 5, 7, 9 p.i., listed as free BMS
  Survival rate on day 13 p.i., at the end of the cerebral phase: 12%
[3]; 20 mg/kg
  Average clinical score (±SEM): 12.3±2.4
[3]; [7]
  % survival: 100%
  Group score: 1.3±1.1
[3]; [8]
  % survival: 47%
  Group score: 8.4 ±1.7
[3]; treatment days 3, 5, 7, 9 p.i., as quoted with the gene expression study
  Incidence of ECM: 75%
[4]; day 5 p.i.
  Microglia, normalized IOD: 12±1
[4]; day 9 p.i.
  Microglia, normalized IOD: 10±0.05
[5]; day 5 p.i.
  Astrocytes, normalized IOD: 1.7±0.9
[5]; day 9 p.i.
  Astrocytes, normalized IOD: 1.1±0.1
[5]; day 9 p.i., n = 23, 18 cells
  Astrocyte number of primary processes: 10±2
[6]
  Potency of BMS relative to MPS: five
